# Test results taken from PMC10487658, “Identification and Characterization of RK22, a Novel Antimicrobial Peptide from Hirudinaria manillensis against Methicillin Resistant Staphylococcus aureus” (International Journal of Molecular Sciences, 2023).
# Where two headings read alike, the source gives them in different places. No end group written: not given here.
# What was measured:
# E. coli, ATCC25922 = type: cell-based, Escherichia coli; conditions: E. coli ATCC25922; RPMI 1640, 37 °C, 12–16 h, absorbance at 600 nm
# C57BL/6 mice = type: in vivo, mouse; conditions: male C57BL/6 mice, 96 h; for survival: n = 8
# Experimental: Male C57BL/6 mice (6–8 weeks of age) were randomly divided into three groups of eight mice per group. Either normal saline or RK22 (20 and 40 mg/kg) was injected intravenously via the tail vein. […] For histopathological analysis, sections of lung, liver, spleen, and kidney were fixed with 4% paraformaldehyde, embedded in paraffin wax, and stained with hematoxylin and eosin (H&E).
# Figure S2. In vivo acute toxicity of RK22. Male C57BL/6 mice (6–8 weeks of age, n = 8 /group) were injected intravenously via the tail vein with saline or RK22 (20 and 40 mg/kg). Mice were observed for survival status within 96 h of the injection (A) and blood was collected via retro-orbital bleeding for routine blood analysis (B-E). The sections of lung, liver, spleen and kidney were stained […]
# (1 picture or pasted object on this page, not shown here)
# P. aeruginosa, ATCC9027 = type: cell-based, Pseudomonas aeruginosa; conditions: P. aeruginosa ATCC9027 in Table 3; RPMI 1640, 37 °C, 12–16 h, absorbance at 600 nm
# [1] = test system: MRSA22 (clinically isolated methicillin-resistant S. aureus); assay: microbe, parasite or virus in culture; type: cell-based, Staphylococcus aureus; conditions: MRSA22 (clinically isolated methicillin-resistant)
# Experimental: (§1) The bacterial strains used in this study included Pseudomonas aeruginosa (P. aeruginosa, ATCC27853), Acinetobacter baumannii (A. baumannii, ATCC19606), Escherichia coli (E. coli, ATCC8739), and S. aureus (ATCC6538, two clinically isolated strains (SA220823 and SA15772)), and three clinically isolated methicillin-resistant strains (MRSA-Z, MRSA11, and MRSA22). All strains were grown in Luria-Bertani (LB) broth.
# (§2) The minimum inhibitory concentration (MIC) for all strains was determined using the […] assay based on a previous study with minor modifications. Initially, strains in the exponential phase were diluted to a concentration of 2 × 10^5 CFU/mL using RPMI 1640 medium (Corning, New York, NY, USA). Next, 100 μL of the bacterial suspension was mixed with 100 μL of the sample solution (final concentration 0–200 μg/mL in RPMI 1640 medium) in 96-well plates. The plates were then incubated at 37 °C for 12–16 h. After incubation, the absorbance at 600 nm was measured, and the MIC was determined as the lowest concentration of the test sample in which no bacterial growth was detected in the well.
# [2] = test system: MRSA-Z (clinically isolated methicillin-resistant S. aureus); assay: microbe, parasite or virus in culture; type: cell-based, Staphylococcus aureus; conditions: -Z (clinically isolated methicillin-resistant)
# Experimental: as §1, §2
# A. baumannii, ATCC19606 = type: cell-based, Acinetobacter baumannii; conditions: RPMI 1640, 2 × 10^5 CFU/mL, 37 °C, 12–16 h, absorbance at 600 nm
# Experimental: as §1, §2
sequence,measurement,setting,value
RKYKEKKDKSQNKKKKRKCMIL [RK22],MIC,"E. coli, ATCC25922",25 mg/L
same,hemoglobin (HGB),C57BL/6 mice; 20 and 40 mg/kg iv,did not induce any changes
same,"histopathological analysis (H&E) of lung, liver, spleen and kidney",C57BL/6 mice; 20 and 40 mg/kg iv,no obvious tissue injury
same,platelets,C57BL/6 mice; 20 and 40 mg/kg iv,did not induce any changes
same,red blood cells,C57BL/6 mice; 20 and 40 mg/kg iv,did not induce any changes
same,white blood cells,C57BL/6 mice; 20 and 40 mg/kg iv,did not induce any changes
same,survival,C57BL/6 mice; single dose 20 mg/kg intravenously via the tail vein,did not result in any fatalities
same,survival,C57BL/6 mice; single dose 40 mg/kg intravenously via the tail vein,did not result in any fatalities
same,MIC,"P. aeruginosa, ATCC9027",>100 mg/L
same,MIC,[1],6.25 mg/L
same,MIC,[2],6.25 mg/L
same,MIC,"A. baumannii, ATCC19606",100 mg/L
